From patent US11723361B2, “Antimicrobial composition having efficacy against endospores” (Next Science IP Holdings Pty Ltd, priority 2015, dated 2023)

Assay: Peracetic acid titrations (pH)
Format: physicochemical
Protocol: Two peracetic acid solutions were prepared by adding distilled water to a flask containing peracetic acid. The concentration of one of the solutions was 5% (w/v) while that of the other was 10% (w/v). The calculated effective solute concentrations for these solutions were 1.97 and 3.95 Osm/L, respectively.
To a 50 mL beaker was added 20 mL distilled water. A cleaned, rinsed and dried probe from a calibrated, temperature compensating pH meter was lowered into the beaker. Sequential aliquots of the peracetic acid solution then were added to the beaker, with pH readings after each. The titrations were performed at room temperature.

In the case of `CC(=O)OO` [Peracetic acid, peracetic acid], the “pH of water after addition” value (1 mL (5% by volume) of either 5% or 10% (w/v) solution) is reported as “below 2”, the pH (5% (w/v) solution, 0.25 mL added to 20 mL distilled water, room temperature) is reported as 2.42 and the pH (5% (w/v) solution, 0.50 mL added to 20 mL distilled water, room temperature) is reported as 2.17. It also gave a pH (5% (w/v) solution, 0.75 mL added to 20 mL distilled water, room temperature) of 2.00, a pH (5% (w/v) solution, 1.00 mL added to 20 mL distilled water, room temperature) of 1.89 and a pH (5% (w/v) solution, 1.25 mL added to 20 mL distilled water, room temperature) of 1.80. The pH (5% (w/v) solution, 1.50 mL added to 20 mL distilled water, room temperature) was 1.74, the pH (5% (w/v) solution, 1.75 mL added to 20 mL distilled water, room temperature) was 1.68 and the pH (5% (w/v) solution, 2.00 mL added to 20 mL distilled water, room temperature) was 1.59. It also gave a pH (5% (w/v) solution, 2.25 mL added to 20 mL distilled water, room temperature) of 1.56, a pH (5% (w/v) solution, 2.50 mL added to 20 mL distilled water, room temperature) of 1.53 and a pH (5% (w/v) solution, 2.75 mL added to 20 mL distilled water, room temperature) of 1.48. For the same compound, the pH (5% (w/v) solution, 3.00 mL added to 20 mL distilled water, room temperature) was 1.45, the pH (5% (w/v) solution, 3.25 mL added to 20 mL distilled water, room temperature) was 1.42 and the pH (5% (w/v) solution, 3.50 mL added to 20 mL distilled water, room temperature) was 1.41. For the same compound, the pH (5% (w/v) solution, 3.75 mL added to 20 mL distilled water, room temperature) was 1.38, the pH (5% (w/v) solution, 4.00 mL added to 20 mL distilled water, room temperature) was 1.34 and the pH (5% (w/v) solution, 4.25 mL added to 20 mL distilled water, room temperature) was 1.30. It also gave a pH (5% (w/v) solution, 4.50 mL added to 20 mL distilled water, room temperature) of 1.28, a pH (5% (w/v) solution, 4.75 mL added to 20 mL distilled water, room temperature) of 1.26 and a pH (5% (w/v) solution, 5.00 mL added to 20 mL distilled water, room temperature) of 1.25. It also gave a pH (10% (w/v) solution, 0.1 mL added to 20 mL distilled water, room temperature) of 2.74, a pH (10% (w/v) solution, 0.2 mL added to 20 mL distilled water, room temperature) of 2.48 and a pH (10% (w/v) solution, 0.3 mL added to 20 mL distilled water, room temperature) of 2.33. For the same compound, the pH (10% (w/v) solution, 0.4 mL added to 20 mL distilled water, room temperature) was 2.22, the pH (10% (w/v) solution, 0.5 mL added to 20 mL distilled water, room temperature) was 2.14 and the pH (10% (w/v) solution, 0.6 mL added to 20 mL distilled water, room temperature) was 2.07. For the same compound, the pH (10% (w/v) solution, 0.7 mL added to 20 mL distilled water, room temperature) was 2.00, the pH (10% (w/v) solution, 0.8 mL added to 20 mL distilled water, room temperature) was 1.95 and the pH (10% (w/v) solution, 0.9 mL added to 20 mL distilled water, room temperature) was 1.91. The pH (10% (w/v) solution, 1.0 mL added to 20 mL distilled water, room temperature) was 1.86, the pH (10% (w/v) solution, 1.1 mL added to 20 mL distilled water, room temperature) was 1.83 and the pH (10% (w/v) solution, 1.2 mL added to 20 mL distilled water, room temperature) was 1.79. For the same compound, the pH (10% (w/v) solution, 1.3 mL added to 20 mL distilled water, room temperature) was 1.76, the pH (10% (w/v) solution, 1.4 mL added to 20 mL distilled water, room temperature) was 1.73 and the pH (10% (w/v) solution, 1.5 mL added to 20 mL distilled water, room temperature) was 1.70. It also gave a pH (10% (w/v) solution, 1.6 mL added to 20 mL distilled water, room temperature) of 1.67, a pH (10% (w/v) solution, 1.7 mL added to 20 mL distilled water, room temperature) of 1.65 and a pH (10% (w/v) solution, 1.8 mL added to 20 mL distilled water, room temperature) of 1.62. The pH (10% (w/v) solution, 1.9 mL added to 20 mL distilled water, room temperature) was 1.60, the pH (10% (w/v) solution, 2.0 mL added to 20 mL distilled water, room temperature) was 1.58 and the “asymptotic pH” value (either 5% or 10% (w/v) acid solution) was about 1.1±0.1. For the same compound, the pH (solutions of at least 2.5% (w/v), according to the tabulated data) was “no more than 1.25” and the “pH of water after addition” value (tiny aliquot, less than 1% by volume, of either 5% or 10% (w/v) solution) was “below 3”.
